Results published in publication PMC3380724 (BMC Neuroscience, 2012).

Key:
h5-HT2AR [1] = target: T1, h5-HT2AR (Homo sapiens, UniProt P28223); assay: Plate immunoassay for pERK, 5-HT2AR-CHO cells; format: cell-based; conditions: for pERK response after serum-replete preincubation: overnight serum-replete preincubation (Figure 7)
parental CHO-K1 cells [2] = assay: Intracellular calcium (Cai++) release assay, parental CHO-K1 cells; format: cell-based, Chinese hamster
Procedure: Changes in Cai^++ levels were determined using the calcium-sensitive dye Calcium 4 (FLIPR No-wash kit, Molecular Devices, Sunnyvale CA, part #R8142). In our hands, the Molecular Devices kit produced results with reasonable signal intensity and reproducibility compared to other commercially available reagents (e.g., Fluo-3 and Fluo-4) without the necessity of dye removal or washing prior to measurements (data not shown). In addition to convenience, the lower number of manipulations required by this kit allowed for more rapid collection of data and decreased the likelihood of cell disturbance or loss.
Cells were plated in serum-replete medium at indicated densities in black-sided, clear bottom 96-well tissue culture plates. […] When plating volume was less than 150 μl, cells were less evenly distributed (visual observation; data not quantified), so we used 150 to 200 μl. […]
Fluorescence (λex = 485 nm, λem = 525 nm) was measured with a FlexStation3 (Molecular Devices). […] The CHO cells remained attached under these conditions; if using other cells lines, attachment should be monitored and reagent addition conditions modified as necessary.
Following addition of test reagent, fluorescence was recorded every 1.7 sec for 90-120 sec. […] Maximum peak height was determined by the FlexStation software (SoftMax Pro 5.2) for each well. […]

parental CHO-K1 cells [3] = assay: Plate immunoassay for pERK, parental CHO-K1 cells; format: cell-based, Chinese hamster
h5-HT2AR [4] = target: T1, h5-HT2AR; assay: Intracellular calcium (Cai++) release assay, Calcium 4 dye, 5-HT2AR-CHO cells; conditions: for Cai++ response when dye added into existing growth medium: "Serum Replete" protocol, 1 μM agonist (Figure 2)
unedited h5-HT2CR [5] = target: T2, unedited h5-HT2CR (Homo sapiens, UniProt P28335); conditions: 5-HT2CR-CHO cells
T2 sequence (P28335 33-458): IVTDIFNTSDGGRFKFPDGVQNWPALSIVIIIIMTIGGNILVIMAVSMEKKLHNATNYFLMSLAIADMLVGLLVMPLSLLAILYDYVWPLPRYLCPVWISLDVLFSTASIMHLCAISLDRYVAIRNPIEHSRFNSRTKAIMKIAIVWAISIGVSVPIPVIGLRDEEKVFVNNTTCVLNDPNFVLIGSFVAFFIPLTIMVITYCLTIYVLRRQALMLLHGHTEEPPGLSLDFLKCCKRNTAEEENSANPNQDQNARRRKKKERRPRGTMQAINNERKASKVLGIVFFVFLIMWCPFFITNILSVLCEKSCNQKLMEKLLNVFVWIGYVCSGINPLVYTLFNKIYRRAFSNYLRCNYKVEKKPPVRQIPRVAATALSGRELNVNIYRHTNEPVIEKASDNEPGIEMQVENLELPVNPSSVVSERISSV

unedited h5-HT2CR [6] = target: T2, unedited h5-HT2CR; assay: cell-based
unedited h5-HT2CR [7] = target: T2, unedited h5-HT2CR; assay: Intracellular calcium (Cai++) release assay, Calcium 4 dye, 5-HT2CR-CHO cells
[8] = EC50 values for agonist-stimulated Cai++ release, 5-HT2CR-CHO cells, Serum-replete overnight preincubation

T1 sequence (P28223 whole entry): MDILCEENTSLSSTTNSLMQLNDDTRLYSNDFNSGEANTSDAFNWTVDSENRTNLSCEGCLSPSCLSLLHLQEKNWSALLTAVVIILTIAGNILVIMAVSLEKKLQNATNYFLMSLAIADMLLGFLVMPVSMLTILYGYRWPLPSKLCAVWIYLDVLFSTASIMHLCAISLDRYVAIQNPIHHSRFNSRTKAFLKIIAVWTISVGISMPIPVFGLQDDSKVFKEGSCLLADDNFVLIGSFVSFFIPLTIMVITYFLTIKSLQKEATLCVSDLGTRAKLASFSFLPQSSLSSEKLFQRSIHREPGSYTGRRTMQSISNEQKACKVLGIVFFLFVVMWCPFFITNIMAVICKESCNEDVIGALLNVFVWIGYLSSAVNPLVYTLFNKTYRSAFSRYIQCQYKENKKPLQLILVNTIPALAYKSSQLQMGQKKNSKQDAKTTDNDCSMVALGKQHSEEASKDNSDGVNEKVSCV

NCCc1c[nH]c2ccc(O)cc12 [5-HT, serotonin]
pERK response after serum-replete preincubation (h5-HT2AR [1]): suppressed
Time of peak ERK activation (h5-HT2AR [1]; serum-starved overnight, 1 μM 5-HT): 5 min
Cai++ release above baseline (parental CHO-K1 cells [2]; above 10^-6 M 5-HT, in a few experiments, not consistent): < 5%
Cai++ release (parental CHO-K1 cells [2]; any concentration of 5-HT (Figure 4B inset)): no Cai^++ release
pERK response (parental CHO-K1 cells [3]): no detectable response
Cai++ response when dye added into existing growth medium (h5-HT2AR [4]): dramatically reduced

COc1cc(CC(C)N)c(OC)cc1I (stereo not shown) [DOI, 1-[2,5-dimethoxy-4-iodophenyl]-2 aminopropane]
Concentration giving maximal pERK response (h5-HT2AR [1]; 5 min stimulation): ~1 μM
pERK response after serum-replete preincubation (h5-HT2AR [1]): suppressed
Concentration giving maximal pERK response (unedited h5-HT2CR [5]; 5 min stimulation): ~1 μM
pERK response after serum-replete preincubation (unedited h5-HT2CR [5]; overnight serum-replete preincubation (Figure 7)): suppressed
EC50 (unedited h5-HT2CR [6]): 19 nM
Cai++ response when dye added into existing growth medium (h5-HT2AR [4]): completely eliminated
Cai++ response after serum preincubation (h5-HT2AR [4]; overnight serum-replete preincubation (Figure 3B)): virtually eliminated
Cai++ response after serum preincubation (unedited h5-HT2CR [7]; 5-HT2CR-CHO cells, overnight serum-replete preincubation (Figure 3D)): virtually eliminated
EC50 (unedited h5-HT2CR [7]; [8]): > 100000 nM
EC50 (unedited h5-HT2CR [7]; EC50 values for agonist-stimulated Cai++ release, 5-HT2CR-CHO cells, Serum-starved overnight preincubation): 5.4 nM

Clc1cncc(N2CCNCC2)n1 [MK212]
EC50 values for agonist-stimulated Cai++ release (h5-HT2AR [4]; Serum-replete overnight preincubation): No response
EC50 values for agonist-stimulated Cai++ release (h5-HT2AR [4]; Serum-starved overnight preincubation): No response
Cai++ release (h5-HT2AR [4]; any tested concentration up to 10^-4 M): no detectable Cai^++ release
Cai++ response after serum-replete preincubation (unedited h5-HT2CR [7]; 5-HT2CR-CHO cells preincubated in serum-replete medium): greatly decreased
EC50 (unedited h5-HT2CR [7]; [8]): > 11000 nM
Cai++ response magnitude (unedited h5-HT2CR [7]; serum-starved 5-HT2CR-CHO cells): low magnitude

COc1ccc(NC(=O)c2ccc(-c3ccc(-c4noc(C)n4)cc3C)cc2)cc1OCCN(C)C [SB216641]
Effect of 5-HT1BR antagonist on Cai++ concentration response to 5-HT (unedited h5-HT2CR [7]; 5-HT2CR-CHO cells, 10^-6 M SB216641, any concentration of 5-HT): no significant difference

Cc1cc2c(cc1Cl)N(C(=O)Nc1ccc(Oc3cccnc3C)nc1)CC2 [SB242084]
EC50 (unedited h5-HT2CR [7]): 2.3 nM
Inhibition of 5-HT-stimulated Cai++ response by antagonist (unedited h5-HT2CR [7]; 5-HT2CR-CHO cells, 15 min pretreatment, 1 μM 5-HT): completely inhibited
